Test results: patent US12590164B2, “Productivity-enhanced antibody and method for producing same” (Yonsei University BioHealth Technology Holdings, Inc., priority 2018, dated 2026)
Each block holds one molecule with its values, some of them ahead of it.

Experiments:
CHO-K1 cells = assay: Rituximab production by transduced CHO-K1 cells after addition of reagent (purified antibody amount, Western blotting of medium); assay type: cell-based, Chinese hamster; conditions: for production of the heavy and light chains of rituximab over time: medium at 24, 48, 72 hours
Procedure: Antibody Production: CHO-K1 cells were inoculated into a 12-well plate at 1×10^5 cells/well and then cultured. The next day, the culture medium having lentivirus-containing cells and a fresh culture medium were mixed at a ratio of 1:1, and treatment with this mixture was performed. Culture was performed for 24 hours. The culture medium was replaced with a new medium, and then treatment with puromycin and blasticidin at 10 μg/ml each was performed for selection. When 72 hours elapsed, the remaining cells were proliferated to obtain sufficient cells. For the cells thus obtained, the culture medium was replaced with a serum-free medium (EX-CELL CD CHO Serum-Free Medium for CHO Cells, Chemically Defined, Sigma, 14360C), and then treatment with Thiamet-G (Sigma Cat #SML0244) reagent at a concentration of 30 μM was performed. The cells were cultured in a CO2 incubator at 30° C. for 2 weeks. Then, the culture medium was collected and centrifuged at 1000 rcf for 3 minutes at 4° C. Only the supernatant was transferred separately into a clean tube, and the cells mixed with the supernatant were removed. The resultant was stored at 4° C.
Antibody Purification: the antibody-containing culture medium was treated with protein A agarose beads (Pierce Protein A Agarose, Therm Fisher Scientific, QE218104), and the reaction was allowed to proceed at 4° C. for 4 hours. The supernatant was removed by centrifugation, and washing with a washing buffer (0.1 M NaPO4, 0.15 M NaCl, pH 7.4) was performed five times. For the beads from which the supernatant was removed, elution was again performed 5 times with an elution buffer (0.2 M glycine, pH 3) in the same bead volume. […] Then, the total protein was quantified by the Bradford method.
To identify changes in protein amount of heavy and light chains of antibody caused by treatment with Thiamet-G, the following experiment was performed to check changes in antibody production over time after addition of Thiamet-G. The cell culture medium was collected when 24 hours, 48 hours, and 72 hours elapsed after addition of Thiamet-G at a concentration of 30 μM. […] The ECL solution was used to sensitize an x-ray film (FIG. 2), and production of the heavy and light chains at each time point was analyzed (FIG. 3).
During the antibody production process, the reagent OSMI-1 (Sigma #SML1621), which corresponds to an OGT inhibitor, at a concentration of 30 μM was added in place of Thiamet-G. Then, in the same manner as described above, the cell culture medium was collected when 24 hours, 48 hours, and 72 hours elapsed, and the production of the antibody and its heavy chain was analyzed through Western blotting (FIGS. 4-5). […]

[1] = tested on: O-linked N-acetylglucosamine (O-GlcNAc) in rituximab; assay: Degree of binding of O-GlcNAc in rituximab (RL2 Western blotting, metabolic labeling); assay type: cell-based
Procedure: Based on the total protein amount, the isolated rituximab was subjected to electrophoresis on acrylamide gel so that proteins were separated by size. Then, the proteins were transferred to a nitrocellulose membrane. Portions other than the proteins electrically transferred to the nitrocellulose membrane were blocked with TBS-T containing 5% non-fat milk and 0.1% Tween 20 at room temperature for 1 hour. Incubation with O-linked N-acetylglucosamine (O-GlcNAc)-specific antibody (RL2-HRP) was performed at room temperature for 1 hour, and then washing with TBS-T was performed three times for 10 minutes each. The ECL solution was used to sensitize an x-ray film (FIG. 6A).
The ECL solution was used to sensitize an x-ray film (FIG. 6B).
The cell line was cultured for 72 hours in a serum-free RPMI medium treated with Thiamet-G (TMG) at 50 μM, and then harvested. Then, a cell lysate was prepared. […] Then, Coomassie blue staining was performed. The results are illustrated in FIGS. 7A-7B. Here, however, as a control, Mabthera (Mab) (Roche) was used.
To further identify differences in degree of binding of O-GlcNAc in antibody, a comparison of O-GlcNAc binding amount using metabolic labeling wax performed. […] The cell line was treated with Thiamet-G at 50 μM and Ac4GlcNAz (azido sugar) at 50 μM and cultured for 4 days. […] O-GlcNAc in the rituximab was subjected to metabolic labeling.

[2] = tested on: O-linked N-acetylgalactosamine (O-GalNAc) in rituximab; assay: Degree of binding of O-GalNAc in rituximab (Jacalin lectin blotting, LC-MS/MS); assay type: cell-based
Procedure: The nitrocellulose membrane was blocked with PBS-T (Tween 0.5%) for 1 hour. Then, an O-GalNAc-binding lectin (biotinylated-Jacalin) was added thereto, and incubation was performed at room temperature for 1 hour. Washing with PBS-T was performed three times for 10 minutes each, and then incubation with streptavidin-HRP was performed at room temperature for 30 minutes. Washing with PBS-T was performed three times for 10 minutes each, and then the ECL solution was used to sensitize an x-ray film. […] Then, washing with TBS-T was performed three times for 10 minutes each. The ECL solution was used to sensitize an x-ray film (FIGS. 17A-17B).

[3] = tested on: CHO cell line expressing rituximab; assay: Antibody production after Thiamet-G, cell line expressing rituximab; assay type: cell-based, Chinese hamster; conditions: 50 μM, 30° C.
Procedure: (§1) The next day, treatment with Thiamet-G at 50 μM in 3 ml of CHO medium was performed, and culture was performed at 30° C. for 2 weeks. Then, the medium was harvested. The same volume of medium was subjected to electrophoresis so that proteins were separated by size, and then the proteins were transferred to a PVDF membrane. Portions other than the proteins electrically transferred to the membrane were blocked with TBS-T containing 5% non-fat milk and 0.1% Tween 20 at room temperature for 1 hour. […] The ECL solution was used to sensitize an x-ray film (FIG. 19), and changes in production depending on treatment with Thiamet-G were measured for each antibody (FIG. 20).
as §1, with “7 days.” for “2 weeks.”, “(FIGS. 22-23).” for “(FIG. 19), and changes in production depending on treatment with Thiamet-G were measured for each antibody (FIG. 20).”

[4] = tested on: CHO cell line expressing nivolumab; assay: Antibody production after Thiamet-G, cell line expressing nivolumab; assay type: cell-based, Chinese hamster; conditions: 50 μM, 30° C.
Procedure: as §1
as §1, with “7 days.” for “2 weeks.”, “(FIGS. 22-23).” for “(FIG. 19), and changes in production depending on treatment with Thiamet-G were measured for each antibody (FIG. 20).”

[5] = tested on: CHO cell line expressing pembrolizumab; assay: Antibody production after Thiamet-G, cell line expressing pembrolizumab; assay type: cell-based, Chinese hamster; conditions: 50 μM, 30° C.
Procedure: as §1
as §1, with “7 days.” for “2 weeks.”, “(FIGS. 22-23).” for “(FIG. 19), and changes in production depending on treatment with Thiamet-G were measured for each antibody (FIG. 20).”

Ramos cells [6] = assay: Binding affinity of rituximab to Ramos cells by flow cytometry; conditions: 0.1-10 μg/ml, 4° C. 30 minutes, FACS; compared to the rituximab obtained without any treatment
Procedure: Then, incubation was performed at 4° C. for 30 minutes. Washing with PBS was performed once, and then treatment with anti-human Ig Fc-specific FITC-conjugated secondary antibody (109-095-008, 1:200 dilution; Jackson Laboratories), which was diluted […] with 50 μl PBS, was performed. Incubation was performed at 4° C. for 30 minutes. […] Analysis was performed with the FlowJo software (FIG. 14).

Ramos cells [7] = assay: Complement-dependent cytotoxicity with rabbit complement; assay type: cell-based; conditions: 0.1-10 ug/ml, rabbit complement 1:4, 2 hours; compared to the rituximab obtained without any treatment
Procedure: Complement-Dependent Cytotoxicity (complementary dependent cell death): Ramos cells were treated with 5 uM of calcein-AM in a serum-free RPMI, and then incubated at 37° C. for 30 minutes. The stained Ramos cells were dispensed in an amount of 1×10^5 cells/well.

Molecule: COc1ccccc1[C@@H](NS(=O)(=O)c1ccc2[nH]c(=O)ccc2c1)C(=O)N(Cc1ccco1)Cc1cccs1 [OSMI-1]
production of the heavy and light chains of rituximab over time (CHO-K1 cells; 30 μM, Western blotting): extent of increase in production decreased as compared with the untreated negative control

binding of O-GalNAc to light chain residues of rituximab ([2]; LC-MS/MS, untreated rituximab has O-GalNAc on 7 light chain residues): decreased in 5 out of the 7 residues
O-GalNAc bound to rituximab ([2]; biotinylated-Jacalin lectin blotting, same amount of rituximab): decreased
Molecule: CCN=C1N[C@@H]2[C@@H](O)[C@H](O)[C@@H](CO)O[C@@H]2S1 [Thiamet-G]
production of rituximab depending on treatment concentration (CHO-K1 cells; 0, 30 or 50 μM for 72 hours, Western blotting): increased proportionally
production of the purified rituximab antibody, increase versus no treatment (CHO-K1 cells; 30 μM, 30° C., 2 weeks, FIG. 1): about 2 times
production of the heavy and light chains of rituximab over time (CHO-K1 cells; 30 μM, Western blotting): remarkably increased over time
O-GlcNAc in rituximab, metabolic labeling ([1]; 50 μM with Ac4GlcNAz 50 μM, 4 days, streptavidin-HRP): increased
O-GlcNAc in rituximab ([1]; 50 μM, 2 weeks at 30° C., RL2-HRP, reducing and non-reducing conditions): increased
degree of binding of O-GlcNAc in rituximab ([1]; rituximab of Example 1, RL2-HRP Western blotting, same amount of rituximab): increased
production of the light chain of rituximab ([3]; 2 weeks): increased remarkably by two or more times
production of rituximab ([3]; 7 days): increased remarkably
production of the light chain of nivolumab ([4]; 2 weeks): increased remarkably by two or more times
production of nivolumab ([4]; 7 days): increased remarkably
production of the light chain of pembrolizumab ([5]; 2 weeks): increased remarkably by two or more times
production of pembrolizumab ([5]; 7 days): increased remarkably

Molecule: rituximab, which underwent O-linked glycosylation by treatment with Thiamet-G: rituximab (SEQ ID NO: 5 and 6) produced in CHO-K1 cells with Thiamet-G, O-GlcNAc bound to light chain serines 7, 12, 14, 181
binding affinity (Ramos cells [6]): no difference
complement-dependent cytotoxicity (Ramos cells [7]): no difference
